These results are taken from US20240238281A1, “PIPERAZINE DERIVATIVES AND APPLICATION THEREOF” (priority 2021, published 2024).

One series concerns MDR1-MDCKII cells. As to the kind of experiment: In vitro MDCK-MDR1 permeability. The series is classed as in vitro ADME. As to conditions: MDR1-MDCKII permeability and efflux rating. As to the method:
(§1) MDR1-MDCKII cells (from the Netherlands Cancer Institute) were inoculated onto a 96-plate (from Corning) with a cell density of 2.5×10^5 cells/mL, and cultured for 4-7 days to form a co-polymeric cell monolayer. A Hank's equilibrium salt buffer (pH=7.40±0.05) containing 10 mM of 4-hydroxyethyl piperazine ethanesulfonic acid was used as a transport buffer. The bidirectional transport of the test compound at a concentration of 2 μM was tested, and the concentration of DMSO in the incubation system was controlled below 1%. After sample loading, the cell plate was placed at 37±1° C. for inoculation with 5% CO2 under a saturated humidity condition for 150 minutes. All samples were subjected to quantitative analysis using the LC-MS/MS method.
(§2) The apparent permeability coefficient (Papp, cm/s), the efflux ratio, and the recovery rate were calculated using the following formula.
(§3) The apparent permeability coefficient (Papp, cm/s) was calculated using the following formula: […]
(§4) DC/dt was the cumulative concentration (μM/s) of the compound at the receiving end per unit time; Vr was the volume of the solution at the receiving end (the solution volumes at the top and base ends were 0.075 mL and 0.250 mL, respectively); A was the relative surface area of the cell monolayer (0.0804 cm^2); and C0 was the initial concentration (nM) of a test sample at the administration end or the peak area ratio of a control sample.
(§5) The efflux ratio was calculated using the following formula: […]
(§6) The recovery rate was calculated using the following formula: […]
(§7) C0 was the initial concentration (nM) of the test sample at the administration end or the peak area ratio of the control sample; Vd was the volume of the administration end (0.075 mL on the top side and 0.250 mL on the base side); Cd and Cr were the final concentrations (nM) of the test sample at the administration end and the receiving end, or the peak area ratios of the control sample , respectively.

Another series deals with MDR1. As to the kind of experiment: In vitro MDCK-MDR1 permeability. The class given is in vitro ADME. As to conditions: dog, MDCK-MDR1, pH 7.4, MDR1-MDCKII monolayer, 2 μM, 150 minutes. Here is the method:
as §1, §2, §3, §4, §5, §6, §7

Entries after “also recorded” stand apart in the source; their conditions may differ.

By efflux ratio is commonly meant the permeability from basolateral to apical divided by that in the opposite direction, in the common usage. Broadly, the Papp A→B is the apparent permeability from the apical to the basolateral side of a cell layer. Higher therefore signals fast passage. A word on the Papp B→A: it is the apparent permeability from the basolateral to the apical side of a cell layer. Regarding `C[C@@H]1CN(C(=O)[C@@H]2CN(C3CCOCC3)C[C@H]2c2ccc(F)cc2F)C[C@H](C)N1c1ccc(F)cc1` (single isomer, unassigned) [Compound 7], the Rating result in the series with MDR1-MDCKII cells is given as “High permeability,; also recorded: low efflux”. Besides, in the series with MDR1, the efflux ratio at 150 min, 2 μM amounted to 0.98. For the same compound, in the series with MDR1 (pH 7.40), the apparent permeability from apical to basolateral (Papp A→B) at 150 min, 2 μM is 13.5 ×10⁻⁶ cm/s and the Papp B→A at 150 min, 2 μM worked out at 13.2 ×10⁻⁶ cm/s.
